Data taken from US10076519B2 (CYTOKINETICS, INC., priority 2010, dated 2018).

These compounds were tested on rabbit skeletal myofibrils (fast skeletal myofibrils) (assay: Activation of fast skeletal myofibrils (PUMA assay, PK/LDH-coupled ATPase at pCa25)). Settings: AC1.4 determined according to the procedure of Example 39; reported as class symbols.
Assay type: biochemical
Outline: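 ATPase activity of Triton-washed rabbit skeletal myofibrils, roughly 90% fast fibres, tracked by NADH loss at 340 nm through a PK/LDH-coupled ADP-regenerating system. Calcium set to 25% of maximal activity (pCa25), in PIPES 12 mM pH 6.8 with 2 mM MgCl2 and 1 mM DTT; AC1.4 reported.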

SMILES | Mean AC1.4
CC(C)(CNc1ccc(C(=O)NCC(N)=O)nn1)c1ccc(F)cc1 [N-(carbamoylmethyl)(6-{[2-(4-fluorophenyl)-2-methylpropyl]amino}pyridazin-3-yl)carboxamide] | D (D=>20 uM)

Same assay, conditions: median AC1.4 class, procedure of Example 39

SMILES | Mean AC1.4
O=C(NC[C@@H](O)CO)c1cnc(-c2ccc(NCC3(c4ncccc4F)CCC3)nn2)s1 [N-((2R)-2,3-dihydroxypropyl){2-[6-({[(3-fluoro(2-pyridyl))cyclobutyl]methyl}ami-no)pyridazin-3-yl](1,3-thiazol-5-yl)}carboxamide] | B (B=1-10 uM)
O=C(NC[C@@H](O)CO)c1ccc(F)c(-c2ccc(NC[C@]3(c4ncccc4F)C[C@H](F)C3)nn2)c1 [N-((2R)-2,3-dihydroxypropyl){4-fluoro-3-[6-({[3-fluoro-1-(3-fluoro(2-pyridyl))cyclobutyl]methyl}ami-no)pyridazin-3-yl]phenyl}carboxamide] | A (A=<1 uM)
O=C(NC[C@H](O)CO)c1cnc(-c2ccc(NCC3(c4ncccc4F)CCC3)nn2)s1 [N-((2S)-2,3-dihydroxypropyl){2-[6-({[(3-fluoro(2-pyridyl))cyclobutyl]methyl}ami-no)pyridazin-3-yl](1,3-thiazol-5-yl)}carboxamide] | A (A=<1 uM)
O=C(NC[C@H](O)CO)c1ccc(F)c(-c2ccc(NC[C@]3(c4ncccc4F)C[C@H](F)C3)nn2)c1 [N-((2S)-2,3-dihydroxypropyl){4-fluoro-3-[6-({[3-fluoro-1-(3-fluoro(2-pyridyl))cyclobutyl]methyl}ami-no)pyridazin-3-yl]phenyl}carboxamide] | A (A=<1 uM)
O=C(N[C@@H]1CCNC1)c1cnc(-c2ccc(NCC3(c4ncccc4F)CCC3)nn2)s1 [N-((3R)pyrrolidin-3-yl){2-[6-({[(3-fluoro(2-pyridyl))cyclobutyl]methyl}ami-no)pyridazin-3-yl](1,3-thiazol-5-yl)}carboxamide] | A (A=<1 uM)
O=C(N[C@@H]1CCNC1)c1ccc(F)c(-c2ccc(NC[C@]3(c4ncccc4F)C[C@H](F)C3)nn2)c1 [N-((3R)pyrrolidin-3-yl){4-fluoro-3-[6-({[3-fluoro-1-(3-fluoro(2-pyridyl))cyclobutyl]methyl}ami-no)pyridazin-3-yl]phenyl}carboxamide] | B (B=1-10 uM)
O=C(N[C@H]1CCNC1)c1cnc(-c2ccc(NCC3(c4ncccc4F)CCC3)nn2)s1 [N-((3S)pyrrolidin-3-yl){2-[6-({[(3-fluoro(2-pyridyl))cyclobutyl]methyl}ami-no)pyridazin-3-yl](1,3-thiazol-5-yl)}carboxamide] | A (A=<1 uM)
O=C(N[C@H]1CCNC1)c1ccc(F)c(-c2ccc(NC[C@]3(c4ncccc4F)C[C@H](F)C3)nn2)c1 [N-((3S)pyrrolidin-3-yl){4-fluoro-3-[6-({[3-fluoro-1-(3-fluoro(2-pyridyl))cyclobutyl]methyl}ami-no)pyridazin-3-yl]phenyl}carboxamide] | B (B=1-10 uM)
NC(=O)CNC(=O)c1ccc(NCC2(c3ncccc3F)CCC2)nn1 [N-(carbamoylmethyl)[6-({[(3-fluoro(2-pyridyl))cyclobutyl]methyl}ami-no)pyridazin-3-yl]carboxamide] | D (D=>20 uM)
NC(=O)CNC(=O)c1cnc(-c2ccc(NCC3(c4ncccc4F)CCC3)nn2)s1 [N-(carbamoylmethyl){2-[6-({[(3-fluoro(2-pyridyl))cyclobutyl]methyl}ami-no)pyridazin-3-yl](1,3-thiazol-5-yl)}carboxamide] | A (A=<1 uM)
O=C(NCc1cnc(-c2ccc(NCC3(c4ncccc4F)CCC3)nn2)s1)c1cnc(O)[nH]1 [N-({2-[6-({[(3-fluoro(2-pyridyl))cyclobutyl]methyl}ami-no)pyridazin-3-yl](1,3-thiazol-5-yl)}methyl)(2-hydroxyimidazol-5-yl)carboxamide] | A (A=<1 uM)
CC(C)(O)C(=O)NCc1cnc(-c2ccc(NCC3(c4ncccc4F)CCC3)nn2)s1 [N-({2-[6-({[(3-fluoro(2-pyridyl))cyclobutyl]methyl}ami-no)pyridazin-3-yl](1,3-thiazol-5-yl)}methyl)-2-hydroxy-2-methylpropanamide] | A (A=<1 uM)
O=C(CO)NCc1cnc(-c2ccc(NCC3(c4ncccc4F)CCC3)nn2)s1 [N-({2-[6-({[(3-fluoro(2-pyridyl))cyclobutyl]methyl}ami-no)pyridazin-3-yl](1,3-thiazol-5-yl)}methyl)-2-hydroxyacetamide] | A (A=<1 uM)
CC(C)C(=O)NCc1cnc(-c2ccc(NCC3(c4ncccc4F)CCC3)nn2)s1 [N-({2-[6-({[(3-fluoro(2-pyridyl))cyclobutyl]methyl}ami-no)pyridazin-3-yl](1,3-thiazol-5-yl)}methyl)-2-methylpropanamide] | A (A=<1 uM)
O=C(NCc1cnc(-c2ccc(NCC3(c4ncccc4F)CCC3)nn2)s1)c1ncc[nH]1 [N-({2-[6-({[(3-fluoro(2-pyridyl))cyclobutyl]methyl}ami-no)pyridazin-3-yl](1,3-thiazol-5-yl)}methyl)imidazol-2-ylcarboxamide] | A (A=<1 uM)
O=C(NCc1cnc(-c2ccc(NCC3(c4ncccc4F)CCC3)nn2)s1)c1cnc[nH]1 [N-({2-[6-({[(3-fluoro(2-pyridyl))cyclobutyl]methyl}ami-no)pyridazin-3-yl](1,3-thiazol-5-yl)}methyl)imidazol-5-ylcarboxamide] | A (A=<1 uM)
COC(=O)NCc1cnc(-c2ccc(NCC3(c4ncccc4F)CCC3)nn2)s1 [N-({2-[6-({[(3-fluoro(2-pyridyl))cyclobutyl]methyl}ami-no)pyridazin-3-yl](1,3-thiazol-5-yl)}methyl)methoxycarboxamide] | B (B=1-10 uM)
O=C(NCc1cnc(-c2ccc(NCC3(c4ncccc4F)CCC3)nn2)s1)c1cn[nH]c1 [N-({2-[6-({[(3-fluoro(2-pyridyl))cyclobutyl]methyl}ami-no)pyridazin-3-yl](1,3-thiazol-5-yl)}methyl)pyrazol-4-ylcarboxamide] | A (A=<1 uM)
O=C(NCc1cnc(-c2ccc(NCC3(c4ncccc4F)CCC3)nn2)s1)c1ccn[nH]1 [N-({2-[6-({[(3-fluoro(2-pyridyl))cyclobutyl]methyl}ami-no)pyridazin-3-yl](1,3-thiazol-5-yl)}methyl)pyrazol-5-ylcarboxamide] | A (A=<1 uM)
O=C(NCc1cnc(-c2ccc(NCC3(c4ncccc4F)CCC3)nn2)s1)C1(NCc2ccccc2)COC1 [N-({2-[6-({[(3-fluoro(2-pyridyl))cyclobutyl]methyl}ami-no)pyridazin-3-yl](1,3-thiazol-5-yl)}methyl){3-[benzylamino]oxetan-3-yl}carboxamide] | A (A=<1 uM)
CC(=O)NCc1cnc(-c2ccc(NCC3(c4ncccc4F)CCC3)nn2)s1 [N-({2-[6-({[(3-fluoro-2-pyridyl)cyclobutyl]methyl}ami-no)pyridazin-3-yl]-1,3-thiazol-5-yl}methyl)acetamide] | A (A=<1 uM)

Same assay, conditions: median AC1.4 reported as class; procedure of Example 39

SMILES | Mean AC1.4
O=C(N[C@@H]1CCNC1=O)c1ccc(NCC2(c3ncccc3F)CCC2)nn1 [N-((3R)-2-oxopyrrolidin-3-yl)[6-({[(3-fluoro(2-pyridyl))cyclobutyl]methyl}ami-no)pyridazin-3-yl]carboxamide] | D (D=>20 uM)
O=C1CC[C@@H](NC(=O)c2ccc(NCC3(c4ncccc4F)CCC3)nn2)CN1 [N-((3R)-6-oxo(3-piperidyl))[6-({[(3-fluoro(2-pyridyl))cyclobutyl]methyl}ami-no)pyridazin-3-yl]carboxamide] | D (D=>20 uM)
O=C(N[C@@H]1CCOC1)c1cccc(-c2ccc(NC[C@]3(c4ncccc4F)C[C@H](F)C3)nn2)c1 [N-((3R)oxolan-3-yl){3-[6-({[3-fluoro-1-(3-fluoro(2-pyridyl))cyclobutyl]methyl}ami-no)pyridazin-3-yl]phenyl}carboxamide] | B (B=1-10 uM)
O=C(N[C@H]1CCNC1=O)c1ccc(NCC2(c3ncccc3F)CCC2)nn1 [N-((3S)-2-oxopyrrolidin-3-yl)[6-({[(3-fluoro(2-pyridyl))cyclobutyl]methyl}ami-no)pyridazin-3-yl]carboxamide] | D (D=>20 uM)
O=C1CC[C@H](NC(=O)c2ccc(NCC3(c4ncccc4F)CCC3)nn2)CN1 [N-((3S)-6-oxo(3-piperidyl))[6-({[(3-fluoro(2-pyridyl))cyclobutyl]methyl}ami-no)pyridazin-3-yl]carboxamide] | D (D=>20 uM)
O=C(N[C@H]1CCOC1)c1cccc(-c2ccc(NC[C@]3(c4ncccc4F)C[C@H](F)C3)nn2)c1 [N-((3S)oxolan-3-yl){3-[6-({[3-fluoro-1-(3-fluoro(2-pyridyl))cyclobutyl]methyl}ami-no)pyridazin-3-yl]phenyl}carboxamide] | B (B=1-10 uM)
O=C(N[C@@H]1CS(=O)(=O)C[C@H]1O)c1cccc(-c2ccc(NC[C@]3(c4ncccc4F)C[C@H](F)C3)nn2)c1 [N-((3S,4S)-4-hydroxy-1,1-dioxothiolan-3-yl){3-[6-({[3-fluoro-1-(3-fluoro(2-pyridyl))cyclobutyl]methyl}ami-no)pyridazin-3-yl]phenyl}carboxamide] | B (B=1-10 uM)
CN(Cc1cnc(-c2ccc(NCC3(c4ncccc4F)CCC3)nn2)s1)C(=O)CO [N-({2-[6-({[(3-fluoro(2-pyridyl))cyclobutyl]methyl}ami-no)pyridazin-3-yl](1,3-thiazol-5-yl)}methyl)-2-hydroxy-N-methylacetamide] | B (B=1-10 uM)
CNC(C)(C)C(=O)NCc1cnc(-c2ccc(NCC3(c4ncccc4F)CCC3)nn2)s1 [N-({2-[6-({[(3-fluoro(2-pyridyl))cyclobutyl]methyl}ami-no)pyridazin-3-yl](1,3-thiazol-5-yl)}methyl)-2-methyl-2-(methylamino)propanamide] | A (A=<1 uM)
CC(=O)NCc1cccc(-c2ccc(NC[C@]3(c4ncccc4F)C[C@H](F)C3)nn2)c1 [N-({3-[6-({[3-fluoro-1-(3-fluoro(2-pyridyl))cyclobutyl]methyl}ami-no)pyridazin-3-yl]phenyl}methyl)acetamide] | B (B=1-10 uM)
